From patent US20240226117A1, “TREATMENT OF CONGENITAL ADRENAL HYPOPLASIA” (ReveraGen BioPharma, Inc., priority 2021, published 2024)

How the values were obtained:
Assay type in all cases: in vivo, human
DMD participants [1] = assay: Prespecified safety evaluation: height percentile for age and BMI z-score
Protocol: As with the […] comparators, group-matching criteria were prespecified in the iSAP, and 2 independent statisticians carried out the participant matching. […] There was no corresponding 12-month assessment in vamorolone-treated participants. (Assessments of vamorolone-treated trial participants were 0, 3, 6, and 18 months). Standing height and weight were assessed at each study visit. Height z-score, body mass index (BMI: kg/m^2), and BMI z-score were calculated centrally. AE reporting was done per protocol in the vamorolone trials. The current study is the first to evaluate the longer-term tolerability, efficacy, and safety of vamorolone in DMD. […] Given the variable timing of dose escalations, it was prespecified that initial analyses of drug-related efficacy and safety would be limited to those participants who had 18 months of treatment with 2.0 mg/kg/day vamorolone or more (dose group C+dose group D: n=23). Outcomes for these participants were compared to a group-matched cohort from the […] over 18 months (corticosteroid-naïve, n=19: corticosteroid-treated, n=68). Participants were matched for age and treatment period (+1 month), matching criteria were prespecified in the statistical analysis plan. Two independent statisticians carried out the matching. […] Participants in the corticosteroid-treated […] group were treated for at least 18 months, but the total duration, dose, and regimens varied. Statistical analyses were done on paired longitudinal outcome data using an analysis of covariance (ANCOVA) approach with change from baseline (VBP15-002) to month 18 (midpoint of VBP15-LTE). Baseline response and age were included as covariates. For the vamorolone-treated participants, age was calculated as (date of informed consent minus birthdate)/365.25. For the DNHS participants, age was calculated as (date of baseline visit used minus birthdate)/365.25. The baseline visit for a DNHS participant was the first visit. […] Timed function tests were analyzed as velocity scores to limit the impact of participants who could not perform the test (velocity=0). Velocity measures are variance-stabilizing transformations, suppressing extreme raw outliers from raw values in seconds; these help with distributional assumptions of the statistical models/tests used. Raw data (seconds) are also reported. Velocity scores for […] (event/second), TTRW (meters/second), and […] (event/second) were inputted as 0 at the first response missing due to inability to perform the test. All other data were observed values only, without imputation. No adjustments for multiplicity on inferential statistics were specified in the iSAP.

DMD participants [2] = assay: Skeletal maturation by wrist x-ray, VBP15-LTE Month 24; conditions: for Bone Age difference to Chronologic Age, mean (SD): wrist x-ray at LTE Month 24, n = 39
Description: In certain embodiments, the difference between chronological age of the human patient and the bone age of the human patient is reduced. A child's bone age (also called the skeletal age) is assigned by determining which of the standard X-ray images in the atlas most closely match the appearance of the child's bones on the X-ray. A difference between a child's bone age and chronological age might indicate a growth problem. The larger the difference between the bone age of a human patient and their chronological age, the greater the growth problem or disease symptom.
In addition, 39/41 LTE participants had wrist x-ray at Month 24; the mean bone age to chronologic age difference was −1.1 (p<0.001, CI −1.5, −0.7), indicating possible skeletal maturation delay (Table 7).

ambulant boys with DMD = assay: VBP15-004 bone turnover biomarkers; conditions: for Osteocalcin, difference vs. prednisone / Procollagen 1 N-Terminal Propeptide (P1NP), difference vs. prednisone / Type I Collagen C-Telopeptides (CTX), difference vs. prednisone: Week 24, p < 0.001
[3] = 18 months, vamorolone 2.0 or 6.0 mg/kg/day, DNHS corticosteroid doses and regimens varied
[4] = vamorolone 18 months versus corticosteroid-naïve DNHS, ANCOVA

- Bone Age difference to Chronologic Age, mean (SD) (DMD participants [2]): −1.1 (1.2), yr
- Bone Age difference to Chronologic Age, mean (SD) (DMD participants [2]; listed as vamorolone): −1.1 yr
- LTE Month 24 Bone Age, mean (SD) (DMD participants [2]; wrist x-ray, n = 39, chronologic age 8.0 (1.0) yr): 6.8 (1.4), n = 39 yr
- Osteocalcin, mean (SEM) change at Week 24 (ambulant boys with DMD; Vamorolone 2.0 mg, N = 17): 8.3 (3.1) ng/ml
- Procollagen 1 N-Terminal Propeptide (P1NP), mean (SEM) change at Week 24 (ambulant boys with DMD; Vamorolone 2.0 mg, N = 17): 48 (27) ng/mL
- Type I Collagen C-Telopeptides (CTX), mean (SEM) change at Week 24 (ambulant boys with DMD; Vamorolone 2.0 mg, N = 17): 177 (52) pg/mL
- Osteocalcin, difference vs. prednisone (ambulant boys with DMD; Vamorolone 2.0 mg): 23.5 ng/mL
- Procollagen 1 N-Terminal Propeptide (P1NP), difference vs. prednisone (ambulant boys with DMD; Vamorolone 2.0 mg): 182 ng/mL
- Type I Collagen C-Telopeptides (CTX), difference vs. prednisone (ambulant boys with DMD; Vamorolone 2.0 mg): 477 pg/mL
- Osteocalcin, difference vs. prednisone (ambulant boys with DMD; Vamorolone 6.0 mg): 16.9 ng/mL
- Procollagen 1 N-Terminal Propeptide (P1NP), difference vs. prednisone (ambulant boys with DMD; Vamorolone 6.0 mg): 124 ng/mL
- Type I Collagen C-Telopeptides (CTX), difference vs. prednisone (ambulant boys with DMD; Vamorolone 6.0 mg): 390 pg/mL
SMILES: C[C@@H]1C[C@H]2[C@@H]3CCC4=CC(=O)C=C[C@]4(C)C3=CC[C@]2(C)[C@@]1(O)C(=O)CO [Vamorolone, 17α,21-dihydroxy-16α-methylpregna-1,4,9(11)-triene-3,20-dione]
- Mean BMI z-score, 18-month value (SD) (DMD participants [1]; [3]): 1.46 (0.62)
- Mean BMI z-score, change from baseline (SD) (DMD participants [1]; [3]): 0.411 (0.615)
- Mean height percentile for age, 18-month value (SD) (DMD participants [1]; [3]): 35.24 (29.82)
- Mean BMI z-score, change from baseline (SD) (DMD participants [1]; 18 months, vamorolone 2.0 or 6.0 mg/kg/day, DNHS corticosteroid doses and regimens varied, listed as vamorolone): 0.41
- LS Mean change in height percentiles for age (DMD participants [1]; DMD children treated with vamorolone, N = 22, 18 months treatment): +6.9
- BMI change from baseline to 18 months of treatment (DMD participants [1]; original dose group B (0.75 mg/kg/day, escalated in LTE)): 0.5 kg/m^2
- BMI change from baseline to 18 months of treatment (DMD participants [1]; original dose group C (2.0 mg/kg/day)): 1.11 kg/m^2
- BMI change from baseline to 18 months of treatment (DMD participants [1]; original dose group D (6.0 mg/kg/day)): 2.55 kg/m^2
- Mean height percentile for age, LS mean difference (SE) (DMD participants [1]; vamorolone 18-month treatment versus prednisone trial 12-month treatment, ANCOVA): 10.37
- Mean BMI z-score, LS mean difference (SE) (DMD participants [1]; [4]): 0.899 (0.204)
- Mean height percentile for age, LS mean difference (SE) (DMD participants [1]; [4]): 6.72 (3.48)
- growth stunting (mean change in height percentile versus corticosteroid-treated DNHS) (DMD participants [1]; vamorolone treatment group): no evidence of growth stunting
- Mean height percentile for age, LS mean difference (SE) (DMD participants [1]; vamorolone versus corticosteroid-treated DNHS, 18 months, ANCOVA): 15.86
